Like-named read-outs stand apart in the source and are kept apart here.
Target: full-length human PIKFYVE (Homo sapiens (Human), UniProt Q9Y2I7, L932S/Q1183K/Q995L/S1033A/S696N/T998S)
Assay: PIKfyve biochemical assay (ADP-Glo Kinase assay, Carna Biosciences)
Procedure: (§1) PIKfyve Biochemical Assay. The biochemical PIKFyve inhibition assays were run by Carna Biosciences according to proprietary methodology based on the Promega ADP-Glo™ Kinase assay. […] GST-PIKFYVE was purified by using glutathione sepharose chromatography and used in an ADP-Glo™ Kinase assay (Promega). Reactions were set up by adding the test compound solution, substrate solution, ATP solution and kinase solution, each at 4× final concentrations. Reactions were prepared with assay buffer (50 mM MOPS, 1 mM DTT, pH7.2), mixed, and incubated in black 384 well polystyrene plates for 1 hour at room temperature. ADPGlo™ reagent was then added for 40 minutes, followed by kinase detection reagent for an additional 40 minutes. The kinase activity was evaluated by detecting relative light units on a luminescence plate reader. Samples were run in duplicate from 10 μM to 3 nM. […] IC50 values were calculated from concentration vs % inhibition curves by fitting to a four-parameter logistic curve.
as §1, with “The” for “PIKfyve Biochemical Assay. The”, “ADP-Glo™” for “ADPGlo™”, “uM” for “μM”, “curve. […]” for “curve.”

[1] = ADP-Glo, GST-PIKFYVE, 10 μM to 3 nM, read-out: hPIKfyve IC50
[2] = values plotted in FIG. 7, read-out: PIKFYVE Biochemistry (IC50)

Chain of full-length human PIKFYVE (Q9Y2I7 whole entry S696N/L932S/Q995L/T998S/S1033A/Q1183K): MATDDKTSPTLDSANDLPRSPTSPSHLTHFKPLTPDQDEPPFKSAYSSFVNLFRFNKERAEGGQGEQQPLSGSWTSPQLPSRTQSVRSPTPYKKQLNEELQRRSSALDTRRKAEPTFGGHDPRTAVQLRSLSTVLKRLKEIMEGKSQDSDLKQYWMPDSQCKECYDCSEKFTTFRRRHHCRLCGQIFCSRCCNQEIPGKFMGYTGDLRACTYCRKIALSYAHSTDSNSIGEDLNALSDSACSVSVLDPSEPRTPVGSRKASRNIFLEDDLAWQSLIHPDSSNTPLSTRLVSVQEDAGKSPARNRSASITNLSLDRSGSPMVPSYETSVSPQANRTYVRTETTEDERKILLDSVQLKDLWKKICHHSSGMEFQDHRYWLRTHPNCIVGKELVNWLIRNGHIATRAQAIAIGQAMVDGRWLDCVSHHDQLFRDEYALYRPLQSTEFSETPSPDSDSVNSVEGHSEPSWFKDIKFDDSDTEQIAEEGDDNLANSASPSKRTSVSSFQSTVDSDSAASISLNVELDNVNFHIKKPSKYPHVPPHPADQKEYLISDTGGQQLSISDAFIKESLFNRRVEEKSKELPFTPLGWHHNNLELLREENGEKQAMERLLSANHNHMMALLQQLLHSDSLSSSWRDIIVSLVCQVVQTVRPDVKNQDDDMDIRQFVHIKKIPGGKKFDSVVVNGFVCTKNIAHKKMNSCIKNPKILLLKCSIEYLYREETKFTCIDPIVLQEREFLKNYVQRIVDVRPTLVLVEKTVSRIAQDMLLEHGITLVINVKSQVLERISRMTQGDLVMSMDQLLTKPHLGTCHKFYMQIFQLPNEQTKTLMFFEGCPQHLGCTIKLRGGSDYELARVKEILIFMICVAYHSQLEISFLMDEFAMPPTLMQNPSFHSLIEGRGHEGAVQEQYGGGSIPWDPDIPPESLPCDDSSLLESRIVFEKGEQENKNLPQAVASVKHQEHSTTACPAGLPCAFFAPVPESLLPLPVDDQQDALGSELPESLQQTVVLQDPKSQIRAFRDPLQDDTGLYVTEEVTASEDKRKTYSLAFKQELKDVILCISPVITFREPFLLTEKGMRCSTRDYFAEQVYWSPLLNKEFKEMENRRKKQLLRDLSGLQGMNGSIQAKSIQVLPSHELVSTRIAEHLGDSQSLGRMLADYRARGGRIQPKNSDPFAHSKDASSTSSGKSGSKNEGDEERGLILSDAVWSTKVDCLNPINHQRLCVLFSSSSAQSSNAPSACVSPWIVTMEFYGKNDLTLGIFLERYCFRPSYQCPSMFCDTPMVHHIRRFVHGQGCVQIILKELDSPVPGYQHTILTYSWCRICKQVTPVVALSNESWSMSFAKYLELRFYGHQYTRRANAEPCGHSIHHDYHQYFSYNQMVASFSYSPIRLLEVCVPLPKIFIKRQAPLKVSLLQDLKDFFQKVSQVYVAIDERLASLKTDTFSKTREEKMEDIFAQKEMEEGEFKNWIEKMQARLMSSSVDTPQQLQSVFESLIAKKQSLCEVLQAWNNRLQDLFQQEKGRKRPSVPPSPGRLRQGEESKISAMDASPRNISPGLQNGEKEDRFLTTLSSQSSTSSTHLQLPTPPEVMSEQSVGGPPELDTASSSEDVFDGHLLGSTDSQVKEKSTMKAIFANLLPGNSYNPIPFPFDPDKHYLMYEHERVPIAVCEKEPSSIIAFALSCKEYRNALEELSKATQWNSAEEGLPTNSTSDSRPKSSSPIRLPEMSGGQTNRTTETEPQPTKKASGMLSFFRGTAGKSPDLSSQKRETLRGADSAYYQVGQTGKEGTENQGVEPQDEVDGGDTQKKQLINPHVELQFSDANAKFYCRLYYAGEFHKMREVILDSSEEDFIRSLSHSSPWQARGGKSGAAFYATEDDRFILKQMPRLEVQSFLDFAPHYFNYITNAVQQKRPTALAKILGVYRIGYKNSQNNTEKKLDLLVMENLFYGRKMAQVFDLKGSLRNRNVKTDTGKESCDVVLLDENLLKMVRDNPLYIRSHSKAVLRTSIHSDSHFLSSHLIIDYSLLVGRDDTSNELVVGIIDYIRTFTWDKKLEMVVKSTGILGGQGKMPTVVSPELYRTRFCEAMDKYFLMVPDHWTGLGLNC

Row | Structure (SMILES) | IC50 [1] | IC50 [2]
1 | Cn1c(-c2ccncc2)nc2c(N3CCOCC3)nc(-c3ccnn3C3CCCN(C(=O)OC(C)(C)C)C3)nc21 (stereo not drawn) [Compound 42] | 0.1 to 1 µM | –
2 | Cn1c(C2CCOCC2)nc2c(N3CCOCC3)nc(-n3ccc(-c4cccnc4)n3)nc21 [Compound 19, 4-(9-methyl-2-(3-(pyridin-3-yl)-1H-pyrazol-1-yl)-8-(tetrahydro-2H-pyran-4-yl)-9H-purin-6-yl)morpholine] | 1 to 10 µM | –
3 | O=c1c(CCOc2cccnc2)cc2ncncc2n1-c1ccccc1 | – | > 10 µM
4 | Cn1c(-c2ccncc2)nc2c(N3CCOCC3)nc(-c3ccc4c(c3)OCCO4)nc21 [Compound 45] | 0.01 to 0.1 µM | –
5 | O=c1ccn(Cc2nc(N3CCOCC3)cc(-n3nccc3-c3ccccc3)n2)cc1 | – | > 10 µM
6 | Cn1c(-c2ccncc2)nc2c(N3CCOCC3)nc(-c3cc[nH]n3)nc21 [Compound 49] | 0.01 to 0.1 µM | –
7 | Cn1c(-c2ccncc2)nc2c(N3CCOCC3)nc(-c3ccn(-c4ccccc4)n3)nc21 [Compound 46, 9-methyl-6-(morpholin-4-yl)-2-(1-phenyl-1H-pyrazol-3-yl)-8-(pyridin-4-yl)-9H-purine] | 0.01 to 0.1 µM | –
8 | Cn1c(C2CN(C(=O)OC(C)(C)C)C2)nc2c(N3CCOCC3)nc(-n3ccc(-c4ccccc4)n3)nc21 [Compound 13, tert-butyl 3-(9-methyl-6-morpholino-2-(3-phenyl-1H-pyrazol-1-yl)-9H-purin-8-yl)azetidine-1-carboxylate] | 0.01 to 0.1 µM | –
9 | Cn1c(C2CCOCC2)nc2c(N3CCOCC3)nc(-n3ccc(C4CCCNC4)n3)nc21 (stereo not drawn) [Compound 16] | 1 to 10 µM | –
10 | Cn1c(-c2ccncc2)nc2c(N3CCOCC3)nc(-n3ccc(C4CC5(CNC5)C4)n3)nc21 [Compound 35] | 0.01 to 0.1 µM | –
11 | CN1CCC(c2ccn(-c3nc(N4CCOCC4)c4nc(-c5ccncc5)n(C)c4n3)n2)CC1 [Compound 18] | 0.1 to 1 µM | –
12 | Cn1c(-c2ccncc2)nc2c(N3CCOCC3)ncnc21 [Compound 8] | 0.1 to 1 µM | –
13 | Cn1c(-c2ccncc2)nc2c(N3CCOCC3)nc(-c3ccn(C4CCCN(C(=O)OC(C)(C)C)C4)n3)nc21 (stereo not drawn) [Compound 43] | 0.1 to 1 µM | –
14 | Cn1c(-c2ccncc2)nc2c(N3CCOCC3)nc(-n3ccc(C4CCCN(C(=O)OC(C)(C)C)C4)n3)nc21 (stereo not drawn) [Compound 29] | 0.1 to 1 µM | –
15 | Cn1c(C2CCOCC2)nc2c(N3CCOCC3)nc(-n3ccc(-c4ccccc4)n3)nc21 [Compound 12] | 0.1 to 1 µM | –
16 | Cn1c(-c2ccncc2)nc2c(N3CCOCC3)nc(-c3cccc4c3OCCO4)nc21 [Compound 44] | 0.1 to 1 µM | –
17 | c1ccc(-c2nc(-c3cc(N4CCOCC4)nc(OCc4ccncc4)n3)no2)cc1 | – | > 10 µM
18 | Cn1c(-c2ccncc2)nc2c(N3CCOCC3)nc(-n3ccc(-c4cccnc4)n3)nc21 [Compound 7, 9-methyl-6-(morpholin-4-yl)-2-[3-(pyridin-3-yl)-1H-pyrazol-1-yl]-8-(pyridin-4-yl)-9H-purine] | 0.01 to 0.1 µM | –
19 | Cn1c(-c2ccncc2)nc2c(N3CCOCC3)nc(-c3cccc(C4CCN(C(=O)OC(C)(C)C)CC4)n3)nc21 [Compound 4] | 0.1 to 1 µM | –
20 | Cn1c(-c2ccncc2)nc2c(N3CCOCC3)nc(-c3cccc(C4CCNCC4)n3)nc21 [Compound 3] | 0.01 to 0.1 µM | –
21 | Cn1c(-c2ccncc2)nc2c(N3CCOCC3)nc(-n3ccc(C4CCN(C(=O)OC(C)(C)C)C4)n3)nc21 (stereo not drawn) [Compound 40] | 0.1 to 1 µM | –
22 | Cn1c(-c2ccncc2)nc2c(N3CCOCC3)nc(-n3ccc(C4CC5(C4)CN(C(=O)OC(C)(C)C)C5)n3)nc21 [Compound 34] | 0.1 to 1 µM | –
23 | Cn1c(-c2ccncc2)nc2nc(-c3ccnc(-c4ccccc4)n3)nc(N3CCOCC3)c21 [Compound 2, 7-methyl-6-(morpholin-4-yl)-2-(2-phenylpyrimidin-4-yl)-8-(pyridin-4-yl)-7H-purine] | 1 to 10 µM | –
24 | Cn1c(-c2ccncc2)nc2c(N3CCOCC3)nc(-c3noc(C4CCCN(C(=O)OC(C)(C)C)C4)n3)nc21 (stereo not drawn) [Compound 33, tert-butyl 3-{3-[9-methyl-6-(morpholin-4-yl)-8-(pyridin-4-yl)-9H-purin-2-yl]-1,2,4-oxadiazol-5-yl}piperidine-1-carboxylate] | 0.1 to 1 µM | –
25 | CCn1c(-c2ccncc2)nc2c(N3CCOCC3)nc(-n3ccc(-c4ccccc4)n3)nc21 [Compound 5] | 0.01 to 0.1 µM | –

Now from value to compound, other results behind:

Row | IC50 [1] | Structure (SMILES) | IC50 [2]
26 | < 0.01 µM | COc1ccc(-c2nc(N3CCOCC3)c3nc(-c4ccncc4)n(C)c3n2)cc1OC [Compound 106, 4-(2-(3,4-dimethoxyphenyl)-9-methyl-8-(pyridin-4-yl)-9H-purin-6-yl)morpholine] | –
27 | 0.1 to 1 µM | Cn1c(C2CCOCC2)nc2c(N3CCOCC3)nc(-c3noc(-c4ccccc4)n3)nc21 [Compound 89, 4-(9-methyl-2-(5-phenyl-1,2,4-oxadiazol-3-yl)-8-(tetrahydro-2H-pyran-4-yl)-9H-purin-6-yl)morpholine] | –
28 | 0.1 to 1 µM | CC1CC(c2cccc(-c3nc(N4CCOCC4)c4nc(-c5ccncc5)n(C)c4n3)n2)CCN1 (stereo not drawn) [Compound 91, 4-(9-methyl-2-(6-(2-methylpiperidin-4-yl)pyridin-2-yl)-8-(pyridin-4-yl)-9H-purin-6-yl)morpholine] | –
29 | < 0.01 µM | Cc1cccc(/C=N/Nc2nc(N3CCOCC3)c3nc(-c4ccncc4)oc3n2)c1 [Compound 120] | –
30 | 0.1 to 1 µM | CS(=O)(=O)N1CCN(Cc2cc3c(N4CCOCC4)nc(-c4cccc5[nH]ncc45)nc3s2)CC1 [Compound 117] | –
31 | < 0.01 µM | Cn1c(C2CCNCC2)nc2c(N3CCOCC3)nc(-c3ccc4c(c3)OCCO4)nc21 [Compound 113, 4-(2-(2,3-dihydrobenzo[b][1,4]dioxin-6-yl)-9-methyl-8-(piperidin-4-yl)-9H-purin-6-yl)morpholine] | –
32 | 0.01 to 0.1 µM | Cn1c(-c2ccncc2)nc2c(N3CCOCC3)nc(-c3ccc(Cl)cn3)nc21 [Compound 98, 4-(2-(5-chloropyridin-2-yl)-9-methyl-8-(pyridin-4-yl)-9H-purin-6-yl)morpholine] | –
33 | < 0.01 µM | Cn1c(-c2ccncc2)nc2c(N3CCOCC3)nc(-c3ccc4c(c3)NCCC4)nc21 [Compound 114, 4-(9-methyl-8-(pyridin-4-yl)-2-(1,2,3,4-tetrahydroquinolin-7-yl)-9H-purin-6-yl)morpholine] | –
34 | 0.01 to 0.1 µM | c1ccc(-c2nc(-c3nc(N4CCOCC4)c4nc(-c5ccncc5)[nH]c4n3)no2)cc1 [Compound 109, 4-(2-(5-phenyl-1,2,4-oxadiazol-3-yl)-8-(pyridin-4-yl)-9H-purin-6-yl)morpholine] | –
35 | < 0.01 µM | Cn1c(-c2ccncc2)nc2c(N3CCOCC3)nc(-n3ccc(C(F)(F)F)n3)nc21 [Compound 100, 4-(9-methyl-8-(pyridin-4-yl)-2-(3-(trifluoromethyl)-1H-pyrazol-1-yl)-9H-purin-6-yl)morpholine] | –
36 | 0.01 to 0.1 µM | Cn1c(-c2ccncc2)nc2c(N3CCOCC3)nc(-n3cc(-c4ccccc4)cn3)nc21 [Compound 92, 4-(9-methyl-2-(4-phenyl-1H-pyrazol-1-yl)-8-(pyridin-4-yl)-9H-purin-6-yl)morpholine] | –
37 | < 0.01 µM | Cn1c(-c2ccncc2)nc2c(N3CCOCC3)nc(C3CC3)nc21 [Compound 110, 4-(2-cyclopropyl-9-methyl-8-(pyridin-4-yl)-9H-purin-6-yl)morpholine] | –
38 | 0.01 to 0.1 µM | Cn1c(C2=CCOCC2)nc2c(N3CCOCC3)nc(-n3ccc(-c4cccnc4)n3)nc21 [Compound 85, 4-(8-(3,6-dihydro-2H-pyran-4-yl)-9-methyl-2-(3-(pyridin-3-yl)-1H-pyrazol-1-yl)-9H-purin-6-yl)morpholine] | –
39 | 0.01 to 0.1 µM | Cn1c(-c2ccncc2)nc2c(N3CCOCC3)nc(-c3nccc(C4CC4)n3)nc21 [Compound 103, 4-(2-(4-cyclopropylpyrimidin-2-yl)-9-methyl-8-(pyridin-4-yl)-9H-purin-6-yl)morpholine] | –
40 | < 0.01 µM | Cc1cccc(/C=N/Nc2nc(N3CCOCC3)c3nc(-c4ccncc4)sc3n2)c1 [Compound 121] | –
41 | 0.01 to 0.1 µM | c1ccc(-c2nccc(-c3nc(N4CCOCC4)c4cc(-c5ccncc5)sc4n3)n2)cc1 [Compound 122] | –
42 | 0.01 to 0.1 µM | c1ccc(-c2nccc(-c3nc(N4CCOCC4)c4nc(-c5ccncc5)sc4n3)n2)cc1 [Compound 123] | –
43 | 0.01 to 0.1 µM | Cn1c(-c2ccncc2)nc2c(N3CCOCC3)nc(-c3cccnc3)nc21 [Compound 104, 4-(9-methyl-2-(pyridin-3-yl)-8-(pyridin-4-yl)-9H-purin-6-yl)morpholine] | –
44 | < 0.01 µM | CN1CC(Cc2ccn(-c3nc(N4CCOCC4)c4nc(-c5ccncc5)n(C)c4n3)n2)C1 [Compound 86, 4-(9-methyl-2-(3-((1-methylazetidin-3-yl)methyl)-1H-pyrazol-1-yl)-8-(pyridin-4-yl)-9H-purin-6-yl)morpholine] | –
45 | 0.1 to 1 µM | CN1CC(c2nc3c(N4CCOCC4)nc(-n4ccc(-c5ccccc5)n4)nc3n2C)C1 [Compound 81, 4-(9-methyl-8-(1-methylazetidin-3-yl)-2-(3-phenyl-1H-pyrazol-1-yl)-9H-purin-6-yl)morpholine] | –

— US20240150358A1, “PURINES AND METHODS OF THEIR USE” (Kineta, Inc., priority 2020, published 2024)
